From ChEMBL document CHEMBL1151930, “Physicochemical determinants of human renal clearance” (J Med Chem, 2009)

Test: clinical
Conditions: human, in vivo

Row | SMILES | CL renal [mL/min/kg]
1 | COC(=O)Nc1nc2ccc(C(=O)c3ccccc3)cc2[nH]1 [MEBENDAZOLE] | 0.17
2 | CSc1ccc(C(=O)c2[nH]c(=O)[nH]c2C)cc1 [ENOXIMONE] | 0.1
3 | CO[C@@]1(NC(=O)C(C(=O)O)c2ccc(O)cc2)C(=O)N2C(C(=O)O)=C(CSc3nnnn3C)CO[C@@H]21 (stereo not given in full) [MOXALACTAM] | 0.63
4 | CC(=O)[C@]1(O)Cc2c(O)c3c(c(O)c2[C@@H](O[C@H]2C[C@H](N)[C@H](O)[C@H](C)O2)C1)C(=O)c1ccccc1C3=O [IDARUBICIN] | 1.8
5 | OCCN1C[C@H](O)[C@@H](O)[C@H](O)[C@H]1CO [MIGLITOL] | 1.7
6 | C[C@H]1O[C@@H](O[C@H]2[C@@H](O)C[C@H](O[C@H]3[C@@H](O)C[C@H](O[C@H]4CC[C@@]5(C)[C@H](CC[C@@H]6[C@@H]5C[C@@H](O)[C@]5(C)[C@@H](C7=CC(=O)OC7)CC[C@]65O)C4)O[C@@H]3C)O[C@@H]2C)C[C@H](O)[C@@H]1O [DIGOXIN] | 1.7
7 | Nc1nc(NC2CC2)c2ncn([C@H]3C=C[C@@H](CO)C3)c2n1 [ABACAVIR] | 0.15
8 | CCN(CC)CCNC(=O)c1cc(Cl)c(N)cc1OC [METOCLOPRAMIDE] | 1.14
9 | CO/N=C(\C(=O)N[C@@H]1C(=O)N2C(C(=O)O)=C(COC(C)=O)CS[C@H]12)c1csc(N)n1 [CEFOTAXIME] | 1.37
10 | CCCCCN(CCCOC)C(=O)[C@@H](CCC(=O)O)NC(=O)c1ccc(Cl)c(Cl)c1 [DEXLOXIGLUMIDE] | 0.41
11 | C=CCc1ccccc1OCC(O)CNC(C)C (stereo not given) [ALPRENOLOL] | 0.6
12 | Cc1nc2n(c(=O)c1CCN1CCC(c3noc4cc(F)ccc34)CC1)CCCC2 [RISPERIDONE] | 0.18
13 | O=P(O)(O)C(O)(Cc1cccnc1)P(=O)(O)O [RISEDRONIC ACID] | 1.31
14 | Nc1ncn([C@H]2C[C@H](O)[C@@H](CO)O2)c(=O)n1 [DECITABINE] | 1.3
15 | NS(=O)(=O)c1cc(C2(O)NC(=O)c3ccccc32)ccc1Cl (stereo not given) [CHLORTHALIDONE] | 0.98
16 | C[C@H]1c2cccc(O)c2C(=O)C2=C(O)[C@]3(O)C(=O)C(C(N)=O)=C(O)[C@@H](N(C)C)[C@@H]3[C@@H](O)[C@@H]21.O [DOXYCYCLINE] | 0.19
17 | O=P1(NCCCl)OCCCN1CCCl (stereo not given) [IFOSFAMIDE] | 0.58
18 | NC1CCN(c2c(F)cc3c(=O)c(C(=O)O)cn(C4CC4)c3c2Cl)C1 (stereo not given) [CLINAFLOXACIN] | 3.2
19 | O=C(c1ccccc1)c1ccc2n1CCC2C(=O)O (stereo not given) [KETOROLAC] | 0.2
20 | CCCNC(=O)NS(=O)(=O)c1ccc(Cl)cc1 [CHLORPROPAMIDE] | 0.01
21 | CCOC(=O)C1(c2ccccc2)CCC=CC1N(C)C (stereo not given) [TILIDINE] | 0.26
22 | Nc1ncnc2c1ncn2CCOCP(=O)(O)O [ADEFOVIR] | 3.33

Row | SMILES | CL renal [mL/min/kg]
23 | COC(=O)[C@H]1[C@@H](OC(=O)c2ccccc2)C[C@@H]2CC[C@H]1N2C [COCAINE] | 0.4
24 | O=c1[nH]cc(F)c(=O)[nH]1 [FLUOROURACIL] | 1.1
25 | CC(=O)Nc1c(I)c(C(=O)O)c(I)c(N(C)C(C)=O)c1I [METRIZOIC ACID] | 2.53
26 | Cc1ccsc1C(=CCCN1CCC[C@@H](C(=O)O)C1)c1sccc1C [TIAGABINE] | 0.03
27 | CC[C@H](C)C(=O)O[C@H]1C[C@H](O)C=C2C=C[C@H](C)[C@H](CC[C@@H](O)C[C@@H](O)CC(=O)O)[C@H]21 [PRAVASTATIN] | 6.3
28 | Cc1ccc(-c2nc3ccc(C)cn3c2CC(=O)N(C)C)cc1 [ZOLPIDEM] | 0.04
29 | Cn1nnnc1SCC1=C(C(=O)O)N2C(=O)[C@@H](NC(=O)[C@H](O)c3ccccc3)[C@H]2SC1 [CEFAMANDOLE] | 2.7
30 | CC(C)(C)NCC(O)COc1cccc2c1CC(O)C(O)C2 (stereo not given) [NADOLOL] | 1.8
31 | Cc1ncsc1CCCl [CLOMETHIAZOLE] | 0.03
32 | CO/N=C(\C(=O)N[C@@H]1C(=O)N2C(C(=O)O)=C(CSc3nc(=O)c(=O)[nH]n3C)CS[C@H]12)c1csc(N)n1 [CEFTRIAXONE] | 0.12
33 | NCCCC[C@H](N[C@@H](CCc1ccccc1)C(=O)O)C(=O)N1CCC[C@H]1C(=O)O [LISINOPRIL ANHYDROUS] | 1.2
34 | CC(C)c1nc(N(C)S(C)(=O)=O)nc(-c2ccc(F)cc2)c1/C=C/[C@@H](O)C[C@@H](O)CC(=O)O [ROSUVASTATIN] | 3.3
35 | CNS(=O)(=O)Cc1ccc2[nH]cc(CCN(C)C)c2c1 | 3.7
36 | CC(=O)NC[C@H]1CN(c2ccc(N3CCOCC3)c(F)c2)C(=O)O1 [LINEZOLID] | 0.6
37 | O=c1[nH]c2ccccc2n1CCCN1CCC(n2c(=O)[nH]c3cc(Cl)ccc32)CC1 [DOMPERIDONE] | 0.04
38 | CC(=O)Oc1ccccc1C(=O)O [ASPIRIN] | 0.24
39 | CCN(CC)CCCC(C)Nc1ccnc2cc(Cl)ccc12 (stereo not given) [CHLOROQUINE] | 2.3
40 | CC1CCCC(C)N1CCCC(O)(c1ccccc1)c1ccccn1 (stereo not given) [PIRMENOL] | 0.72
41 | CN(C)CCCN1c2ccccc2Sc2ccc(Cl)cc21 [CHLORPROMAZINE] | 0.16
42 | CCOC(=O)c1ncn2c1CN(C)C(=O)c1cc(F)ccc1-2 [FLUMAZENIL] | 0.03
43 | O=C(O)P(=O)(O)O [FOSCARNET] | 1.68
44 | COc1cc(NCc2ccc3nc(N)nc(N)c3c2C)cc(OC)c1OC [TRIMETREXATE] | 0.14

Row | SMILES | CL renal [mL/min/kg]
45 | S=P(N1CC1)(N1CC1)N1CC1 [THIOTEPA] | 0.03
46 | O=C1Cc2cc(CCN3CCN(c4nsc5ccccc45)CC3)c(Cl)cc2N1 [ZIPRASIDONE] | 0.05
47 | CCOC(=O)Nc1ccc(NCc2ccc(F)cc2)nc1N [FLUPIRTINE] | 0.27
48 | Cc1c(OCC(F)(F)F)ccnc1C[S+]([O-])c1nc2ccccc2[nH]1 (stereo not given) [LANSOPRAZOLE] | 0.04
49 | c1ccc(C2(N3CCCCC3)CCCCC2)cc1 [PHENCYCLIDINE] | 0.82
50 | N=C(N)c1ccc(CNC(=O)[C@@H]2CCN2C(=O)[C@H](NCC(=O)O)C2CCCCC2)cc1 | 1.6
51 | OC(Cn1cncn1)(Cn1cncn1)c1ccc(F)cc1F [FLUCONAZOLE] | 0.23
52 | CCCCCNC(=N)N/N=C/c1c[nH]c2ccc(OC)cc12 [TEGASEROD] | 0.36
53 | COCC(=O)Nc1c(I)c(C(=O)NCC(O)CO)c(I)c(C(=O)N(C)CC(O)CO)c1I (stereo not given) [IOPROMIDE] | 1.37
54 | NC(N)=Nc1nc(CSCCC(N)=NS(N)(=O)=O)cs1 [FAMOTIDINE] | 4.42
55 | O=C1CN=C(c2ccccc2Cl)c2cc([N+](=O)[O-])ccc2N1 [CLONAZEPAM] | 0.01
56 | CN(Cc1cnc2nc(N)nc(N)c2n1)c1ccc(C(=O)N[C@@H](CCC(=O)O)C(=O)O)cc1 [METHOTREXATE] | 1.7
57 | CC(C)[C@H]1CC[C@H](C(=O)N[C@H](Cc2ccccc2)C(=O)O)CC1 [NATEGLINIDE] | 0.1
58 | O=C(O)[C@H]1/C(=C/CO)O[C@@H]2CC(=O)N21 [CLAVULANIC ACID] | 1.33
59 | COc1ccc2c3c1O[C@H]1C[C@@H](O)C=C[C@@]31CCN(C)C2 [GALANTAMINE] | 1.57
60 | COc1cc2c3cc1Oc1cc(ccc1O)C[C@@H]1c4c(cc(OC)c(O)c4Oc4ccc(cc4)C[C@@H]3N(C)CC2)CC[N+]1(C)C.[Cl-] | 2.14
61 | C[C@H]1O[C@@H](n2cc(F)c(=O)[nH]c2=O)[C@H](O)[C@@H]1O [DOXIFLURIDINE] | 4.3
62 | CC(C)(C)NC(=O)[C@@H]1CN(Cc2cccnc2)CCN1C[C@@H](O)C[C@@H](Cc1ccccc1)C(=O)N[C@H]1c2ccccc2C[C@H]1O.O | 1.53
63 | COc1nc(C)nc(Cl)c1N=C1NCCN1 [MOXONIDINE] | 7.5
64 | CCc1nn(CCCN2CCN(c3cccc(Cl)c3)CC2)c(=O)n1CCOc1ccccc1 [NEFAZODONE] | 0.38
65 | CC[C@H](C)C(=O)O[C@H]1C[C@@H](C)C=C2C=C[C@H](C)[C@H](CC[C@@H]3C[C@@H](O)CC(=O)O3)[C@H]21 [LOVASTATIN] | 0.72
66 | NNc1nncc2ccccc12 [HYDRALAZINE] | 10.8

Row | SMILES | CL renal [mL/min/kg]
67 | Cc1onc(-c2c(F)cccc2Cl)c1C(=O)N[C@@H]1C(=O)N2[C@@H]1SC(C)(C)[C@@H]2C(=O)O [FLOXACILLIN] | 1.56
68 | Clc1ccc2nsnc2c1NC1=NCCN1 [TIZANIDINE] | 0.33
69 | CN1Cc2c(N)cccc2C(c2ccccc2)C1 (stereo not given) [NOMIFENSINE] | 12.5
70 | CCCCc1nc(Cl)c(CO)n1Cc1ccc(-c2ccccc2-c2nn[nH]n2)cc1 [LOSARTAN] | 0.9
71 | Cc1cccc(Nc2ccncc2S(=O)(=O)NC(=O)NC(C)C)c1 [TORSEMIDE] | 0.13
72 | CN(C)c1cc(NC(=O)CNC(C)(C)C)c(O)c2c1C[C@H]1C[C@H]3[C@H](N(C)C)C(O)=C(C(N)=O)C(=O)[C@@]3(O)C(O)=C1C2=O [TIGECYCLINE] | 0.57
73 | CN1C(=O)NC(=O)C(C)(C2=CCCCC2)C1=O (stereo not given) [HEXOBARBITAL] | 0.02
74 | C[C@H]1C[C@@H]2[C@H]([C@@H](O)C[C@@]3(C)[C@H]2CC[C@]3(O)C(=O)CO)[C@@]2(C)C=CC(=O)C=C12 [METHYLPREDNISOLONE] | 0.3
75 | COc1cc2nc(N3CCN(C(=O)C4CCCO4)CC3)nc(N)c2cc1OC (stereo not given) [TERAZOSIN] | 0.13
76 | CCC[C@@H]1C[C@@H](C(=O)N[C@@H]([C@H]2O[C@H](SC)[C@H](O)[C@@H](O)[C@H]2O)[C@H](C)Cl)N(C)C1 [CLINDAMYCIN] | 0.62
77 | O=C(O)CCCc1ccc(N(CCCl)CCCl)cc1 [CHLORAMBUCIL] | 0.03
78 | COc1cccc2c1C(=O)c1c(O)c3c(c(O)c1C2=O)C[C@@](O)(C(=O)CO)C[C@@H]3O[C@H]1C[C@H](N)[C@H](O)[C@H](C)O1 [DOXORUBICIN] | 1.83
79 | COc1c(N2CCNC(C)C2)c(F)cc2c(=O)c(C(=O)O)cn(C3CC3)c12 (stereo not given) [GATIFLOXACIN] | 2.3
80 | CC1=C(C(=O)O)N2C(=O)[C@@H](NC(=O)[C@H](N)C3=CCC=CC3)[C@H]2SC1 [CEPHRADINE] | 3.14
81 | Cc1nnc2n1-c1ccc(Cl)cc1C(c1ccccc1)=NC2 [ALPRAZOLAM] | 0.15
82 | CCN(CC)CCNC(=O)c1cc(Br)c(N)cc1OC [BROMOPRIDE] | 1.4
83 | CN(C)CCC=C1c2ccccc2CCc2ccccc21 [AMITRIPTYLINE] | 0.12
84 | Oc1ccc2c(c1)[C@@]13CCCC[C@@]1(O)[C@@H](C2)N(CC1CCC1)CC3 [BUTORPHANOL] | 2.05
85 | CC1(C)S[C@@H]2[C@H](NC(=O)[C@H](NC(=O)N3CCNC3=O)c3ccccc3)C(=O)N2[C@H]1C(=O)O [AZLOCILLIN] | 1.67
